In paper PMC7615343, “Fluorination Influences the Bioisostery of Myo-Inositol Pyrophosphate Analogs” (Chemistry (Weinheim an der Bergstrasse, Germany), 2023):

Biological target: T1, PPIP5K2^1-366 (human PPIP5K2 kinase domain) (Homo sapiens, UniProt O43314)
T1 construct: one comprised residues 1–366; made in house
T1 sequence (O43314 1-366): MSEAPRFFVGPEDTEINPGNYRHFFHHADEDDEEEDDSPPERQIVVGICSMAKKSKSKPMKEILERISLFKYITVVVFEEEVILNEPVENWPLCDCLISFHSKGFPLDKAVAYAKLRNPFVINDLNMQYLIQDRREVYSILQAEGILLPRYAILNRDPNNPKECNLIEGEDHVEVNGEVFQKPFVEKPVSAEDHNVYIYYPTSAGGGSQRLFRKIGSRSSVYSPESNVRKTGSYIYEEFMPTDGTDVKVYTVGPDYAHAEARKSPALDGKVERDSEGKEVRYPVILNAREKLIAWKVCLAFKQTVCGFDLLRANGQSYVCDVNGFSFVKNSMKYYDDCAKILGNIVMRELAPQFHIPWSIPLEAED
Experiment: Isothermal titration calorimetry of ligand binding to PPIP5K2KD
Conditions: ITC, 25°C; for ΔH / ΔS: 7.5 μM PPIP5K2^1-366, 75 μM ligand, pH 7.2; for Kd: 7.5 μM PPIP5K2^1-366 in cell, 75 μM ligand in syringe, pH 7.2, 1mM AMP-PNP, 1mM MgCl2, read-out: Kd (apparent)
Text: We next used isothermal titration calorimetry (ITC) to analyze the interactions of PPIP5K2^KD with 5PP-IP5 and each of the four analogs studied herein (Figure 5A-E). […] At the same time, the enthalpic gain for binding was largest for 5PCF2Am-IP5 and 5PA-IP5. A possible explanation may be that these two ligands are less strongly hydrated, due to their lower overall charge. The enthalpic cost for dehydration of 5PCF2Am-IP5 and 5PA-IP5 is therefore lower, compared to the other molecules, resulting in a higher enthalpic gain overall. A less strongly hydrated ligand will also release fewer water molecules upon binding, consistent with the lower entropic gains.
Figure 5 Analysis of ligand binding to the PPIP5K2^KD by ITC. Test solutions contained 7.5 μM of PPIP5K2^1-366 in the sample cell and 75 μM ligand in the syringe. Other details are provided in the Methods Section. Representative thermograms (1 of 3 replicates) are shown for titration of either (A) 5PP-IP5; (B) 5PCPF2P-IP5; (C) 5PCP-IP5; (D) 5PCF2Am-IP5; (E) 5PA-IP5. (F) Corresponding thermodynamic data. TEXT PRINTED IN THE PICTURE: (F) 5PP-: Kd (nM): 123 ± 13; ΔH (kJ/mol): -26 ± 2; ΔS (kJ/mol/deg): 0.046 ± 0.008 | (F) 5PCF2-: Kd (nM): 246 ± 10; ΔH (kJ/mol): -16 ± 1; ΔS (kJ/mol/deg): 0.072 ± 0.005 | (F) 5PCP-: Kd (nM): 100 ± 10; ΔH (kJ/mol): -20 ± 2; ΔS (kJ/mol/deg): 0.067 ± 0.016 | (F) 5PCF2-Am-: Kd (nM): 90 ± 13; ΔH (kJ/mol): -38 ± 2; ΔS (kJ/mol/deg): 0.007 ± 0.004 | (F) 5PA-: Kd (nM): 90 ± 7; ΔH (kJ/mol): -36 ± 3; ΔS (kJ/mol/deg): 0.013 ± 0.008 […]
(§1) Calorimetry experiments were performed using a MicroCal PEAQ-ITC (Malvern Panalytical) with 7.5 μM recombinant PPIP5K21-366 in the sample cell and 75 μM of ligand in the syringe, each of which was maintained at 25°C in buffer containing 20 mM HEPES, pH 7.2, 150 mM KCl, 0.05 mM EDTA, 1mM AMP-PNP, 1mM MgCl2 as indicated. The sample cell (volume = 204 μL) and the syringe were cleaned before each run. Thermograms were constructed from 13 injections, each of which involved 3 μL of ligand delivered for 6 s, with an equilibration time of 150-300 s between each injection. The stirring speed was set to 750 rpm. Data were fitted to a single binding site model using the analysis software provided by the manufacturer. At least three runs were performed for each condition.
Protein expression and purification.
Throughout the main text, PPIP5K2KD is deployed as an abbreviation for the human PPIP5K2 kinase domain. However, two different constructs were utilized, as described in the figure legends and within the Methods section below: one comprised residues 1–366 (PPIP5K21-366) and the other comprised residues 41–366 (PPIP5K241-366). Both constructs were expressed and purified as described previously.[6] The human DIPP1 construct (residues 1-148) was expressed and purified as described in [7]. […]
The molecular graphics representations wer e prepared with the program PyMol (Schrödinger, LLC). Atomic coordinates an d structure factors have been deposited with the Protein Data Bank with accession codes 8G9C, 8G9D, 8G9E.
PPIP5K2KD reverse kinase assay […]
Isothermal titration calorimetry
as §1, with “PPIP5K21–366” for “PPIP5K21-366”, “2 04 µL)” for “204 μL)”, “µL” for “μL”, “150 -300” for “150-300”, “cond ition. […]” for “condition.”

Row | ΔH [kJ/mol] | ΔS [kJ/mol/deg] | Kd [µM] | Compound
1 | -16 ± 1 | 0.072 ± 0.005 | 0.246 | O=P(O)(O)O[C@H]1[C@@H](OP(=O)(O)O)[C@H](OP(=O)(O)O)[C@@H](OP(=O)(O)C(F)(F)P(=O)(O)O)[C@H](OP(=O)(O)O)[C@H]1OP(=O)(O)O [5PCF2P-IP5]
2 | -20 ± 2 | 0.067 ± 0.016 | 0.1 ± 0.01 | O=P(O)(O)CP(=O)(O)O[C@H]1[C@H](OP(=O)(O)O)[C@@H](OP(=O)(O)O)[C@@H](OP(=O)(O)O)[C@@H](OP(=O)(O)O)[C@@H]1OP(=O)(O)O [5PCP-IP5]
